In paper PMC6048268, “Resveratrol Inhibits Key Steps of Steroid Metabolism in a Human Estrogen-Receptor Positive Breast Cancer Model: Impact on Cellular Proliferation” (Frontiers in Pharmacology, 2018):
Where two headings read alike, the source gives them in different places.

Columns and labels:
[1] = test system: steroid metabolism in MCF-7 cells; assay: Inhibition of steroid metabolism by RES in MCF-7 cells (LC–HRMS); settings: for inhibition at 10 µM: Homo sapiens, MCF7, 48 h; for Ki: MCF-7, Dixon plot
Experimental: (§1) Briefly, cartridges were preconditioned with 2 × 1.0 ml acetonitrile and 3 × 1.0 ml ammonium acetate buffer (10 mM, pH = 5.0), and the samples were loaded onto the columns. After washing with 1 × 1.0 ml ammonium acetate buffer (10 mM, pH = 5.0) and 2 × 1.0 ml acetonitrile/ammonium acetate buffer (10 mM, pH 5.0) 10:90 (v/v), the analytes were eluted using 2 × 650 μl acetonitrile/ammonium acetate buffer (10 mM, pH = 5.0) 95:5 (v/v) and evaporated until dry. Subsequently, samples were reconstituted in 270 μl acetonitrile/ammonium acetate buffer (10 mM, pH = 5.0) 25:75 (v/v) and stored at -80°C until further LC–HRMS analysis.
After media collection, cell monolayers were washed five times with 2.0 ml DPBS, detached using 400 μl TrypLE® solution (37°C, 5 min), mixed with 600 μl DPBS and transferred into sample vials. Aliquots of these suspensions (100 μl each) were diluted and counted using the Casy® TT Cell Counter to determine the exact number of cells per sample well. The remaining cell suspensions (900 μl each) were gently centrifuged (1000 rpm, 8 min), and the supernatants were discarded. The cell pellets were subsequently resuspended in 100 μl aqueous ammonium acetate buffer (10 mM, pH = 5.0) and lysed by five freeze-thaw-cycles in liquid nitrogen (3 min each), followed by thawing at ambient temperature. Ammonium acetate buffer (1000 μl) was added, and the suspensions were centrifuged (14000 rpm, 5 min). Subsequently, the supernatants were concentrated using the same SPE protocol as described above. All processed samples were then stored at -80°C until further LC–HRMS analysis. For each condition, three biologically independent experiments were performed; the reported values represent the overall means ± SD of all values.
LC was performed with an UltiMate 3000 RSLC-series system coupled to a maXis HD ESI-Qq-TOF mass spectrometer (Bruker Corporation, Bremen, Germany). A Phenomenex Luna® 3 μm C18(2) 100 Å LC column (250 mm × 4.6 mm I.D.; Phenomenex, Inc., Torrance, CA, United States), preceded by a Hypersil® BDS-C18 guard column (5 μm, 10 mm × 4.6 mm I.D.; Thermo Fisher Scientific, Inc.) was used for the separation of the analytes at a flow rate of 1.0 ml/min and a temperature of 43°C. […] The ESI ion source settings were as follows: capillary voltage: -4.5 kV; dry gas flow rate: 8.0 l/min N2; nebulizer: 1.0 bar N2; and dry temperature: 200°C. The ion transfer parameters were set to 400 Vpp funnel RF and 300 Vpp multipole RF, the quadrupole ion energy was 8.0 eV, and the collision cell parameters were as follows: collision RF, 1100 Vpp; collision energy, 10.0 eV; transfer time, 38 μs; and pre-pulse storage, 18 μs. In the range of m/z 150–500, full-scan mass spectra were recorded.
(§2) The modes of inhibition were subsequently determined from Lineweaver–Burk plots, and the corresponding Ki values were calculated from Dixon plots using GraphPad Prism 6.0.

MCF-7 cells = assay: Cell proliferation, Casy cell counting, MCF-7; assay type: cell-based, human
Experimental: MDA-MB-231 and MCF-7 breast cancer cells were purchased from the American Type Culture Collection (ATCC; Manassas, VA, United States) and routinely cultivated at 37°C (95% humidity and 5% CO2) in phenolred-free Dulbecco’s modified Eagle medium F-12 (DMEM/F-12), fortified with 1% PenStrep®-solution and 10% fetal bovine serum (Invitrogen; Thermo Fisher Scientific, Inc., Waltham, MA, United States). All experiments were performed during the exponential growth phase of both cell lines. For the experiments, cells were seeded in 6-well-plates at a density of 1.0 × 10^6 cells per well and allowed to attach for 24 h.
Prior to cell counting with a Casy® TT Cell Counter (OLS OMNI Life Science, Bremen, Germany), the supernatant medium was removed and cells were detached using 400 μl TrypLe® solution (Invitrogen). All experiments were performed in triplicate, and the data were reported as the means ± standard deviation of all values.

E2 levels = test system: E2 levels; parameters: method as in El-Sayed and Bayan, 2015; settings: mice, 4 mg/kg i.p. for 7 days; ref El-Sayed and Bayan, 2015; cited from earlier work
[2] = test system: steroid metabolism in MDA-MB-231 cells; assay: Inhibition of steroid metabolism by RES in MDA-MB-231 cells (LC–HRMS); assay type: cell-based, human; settings: MDA-MB-231, 100 μM RES, 100 nM DHEA or E1, 48 h
Experimental: as §1
After media collection, cell monolayers were washed five times with 2.0 ml DPBS, detached using 400 μl TrypLE® solution (37°C, 5 min), mixed with 600 μl DPBS and transferred into sample vials. Aliquots of these suspensions (100 μl each) were diluted and counted using the Casy® TT Cell Counter to determine the exact number of cells per sample well. […]
LC was performed with an UltiMate 3000 RSLC-series system coupled to a maXis HD ESI-Qq-TOF mass spectrometer (Bruker Corporation, Bremen, Germany). […] In the range of m/z 150–500, full-scan mass spectra were recorded.
as §2

SULT1A1 mRNA = assay: Real-time PCR, SULT1A1 mRNA expression in MCF-7 cells; assay type: cell-based, human; settings: 10 μM RES; for down-regulation of SULT1A1 mRNA: non-significant
Experimental: MCF-7 breast cancer cells were seeded in 6-well plates at a density of 1.0 × 10^6 cells per well and allowed to attach overnight. […] Expression profiling of genes of interest was performed as detailed previously ([Mechtcheriakova et al., 2007]; [Meshcheryakova et al., 2016]). Upon treatment, total RNA was isolated using peqGOLD TriFAST^TM reagent (VWR, Vienna, Austria) according to the manufacturer’s protocol. 1 μg RNA was used for cDNA generation using the High Capacity cDNA Reverse Transcription Kit (Thermo Fisher Scientific, Inc.) according to the instructions of the manufacturer. Real-time PCR analysis was performed in the 96-well plate format on a QuantStudio 12K Flex Real-Time PCR System (Thermo Fisher Scientific, Inc.). SULT1A1 and SULT2A1 were detected using the corresponding TaqMan Assays (Thermo Fisher Scientific, Inc.). […] HKGs primers were self-designed using the Primer Express 3.0 software (Thermo Fisher Scientific, Inc.) and validated using the Human Total RNA Master Panel (TaKaRa Bio, Inc., Saint-Germain-en-Laye, France), as described before ([Mechtcheriakova et al., 2007], [2011]); Primers: UBC forward: […]; UBC reverse: […]; GAPDH forward: […]; GAPDH reverse: […]; ACTB forward: […]; ACTB reverse: […]. For relative quantification, data were analyzed by applying the ΔΔCT method. Expression levels of target genes were normalized to the average of the HKGs and shown relative to unstimulated cells (0 h time-point).

[3] = MCF-7, 100 μM RES, 100 nM DHEA, 48 h
[4] = MCF-7, 100 μM RES, 100 nM E1, 48 h

Compound: Oc1ccc(/C=C/c2cc(O)cc(O)c2)cc1 [RES, 3,5,4′-trihydroxy-trans-stilbene]
- inhibition at 10 µM ([1]; read-out: inhibition of E1 sulfation): 91.6 ± 1.1%
- inhibition at 10 µM ([1]; read-out: inhibition of E2 sulfation): 90 ± 1%
- increase in AD concentrations [1, 3]: 141.0%
- increase in T levels [1, 3]: 305.9%
- reduction of mean formation of DHEA-S [1, 3]: 87.7%
- increase in unconjugated E2 concentrations [1, 4]: 101.6%
- reduction of mean formation of E1-S [1, 4]: 99.1%
- reduction of mean formation of E2-G [1, 4]: 89.7%
- reduction of mean formation of E2-S [1, 4]: 98.8%
- mode of inhibition of conjugate formation ([1]; MCF-7, Lineweaver–Burk and Dixon plots, all conjugates): non-competitive
- Ki ([1]; read-out: Ki, inhibition of DHEA-S formation, DHEA precursor): 13.2 ± 0.2 µM
- Ki ([1]; read-out: Ki, inhibition of E1-S formation, E1 precursor): 0.94 ± 0.03 µM
- Ki ([1]; read-out: Ki, inhibition of E2-G formation, E1 precursor): 7.92 ± 0.24 µM
- Ki ([1]; read-out: Ki, inhibition of E2-S formation, E1 precursor): 0.73 ± 0.07 µM
- increase in cell counts on co-incubation (MCF-7 cells; 5 μM RES + 100 nM E1, 48 h, vs control without E1): twofold increase in cell counts
- cell number (MCF-7 cells; 5 μM RES, 48 h): 2.92 ± 0.16 × 10^6 cells
- effect on cellular proliferation (MCF-7 cells; 10 μM RES, 48 h): no effect
- cell number (MCF-7 cells; 100 μM RES, 48 h): 1.08 ± 0.11 × 10^6 cells
- Emax at 5 µM (MCF-7 cells; Homo sapiens, MCF7, 48 h, read-out: stimulation of cellular growth (maximal effect)): 21.2 ± 3.3%
- IC50 (MCF-7 cells; Homo sapiens, MCF7, MCF-7, 48 h, steroid-deprived, read-out: IC50 (inhibition of cell growth)): 37.4 ± 14.5 µM
- increase in E2 levels (E2 levels): approximately twofold increase
- effect on formation of DHEA-S, E1-S, E2-S and E2-G [2]: did not affect
- effect on formation of unconjugated AD, T and E2 [2]: no significant influence
- down-regulation of SULT1A1 mRNA (SULT1A1 mRNA; 24 h): 23.6 ± 13.0%
- down-regulation of SULT1A1 mRNA (SULT1A1 mRNA; 48 h): 30.4 ± 11.0%
- effect on transcription of SULT1A1 (SULT1A1 mRNA; up to 4 h): did not affect
